From US10800782B2, “Inhibitors of cellular metabolic processes” (Agios Pharmaceuticals, Inc., priority 2016, dated 2020)

Molecular target: T1, MAT2A (Homo sapiens, UniProt P31153)
T1 construct: His6; made in house; host or cells: SF9 insect cells
Experiment: MAT2A biochemical assay (colorimetric inorganic phosphate detection, PiColorLock)
Conditions: recombinant His6-tagged MAT2A 1 μg/ml; 60 minutes preincubation at 25° C.; L-Met 80 μM, ATP 100 μM; 60 minutes reaction; read at 623 nm; read-out: MAT2A Inhibition Score
Procedure, shortened: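 Colorimetric malachite green readout of phosphate released when MAT2A turns over L-Met and ATP, after 60 min at room temperature. Enzyme: SF9-expressed His6-tagged MAT2A at 1 μg/ml. Buffer: Tris pH 8.0, 50 mM KCl, 15 mM MgCl2, 300 uM EDTA, 0.005% BSA. Compounds tested as ten-point three-fold dilutions.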

T1 sequence (P31153 whole entry): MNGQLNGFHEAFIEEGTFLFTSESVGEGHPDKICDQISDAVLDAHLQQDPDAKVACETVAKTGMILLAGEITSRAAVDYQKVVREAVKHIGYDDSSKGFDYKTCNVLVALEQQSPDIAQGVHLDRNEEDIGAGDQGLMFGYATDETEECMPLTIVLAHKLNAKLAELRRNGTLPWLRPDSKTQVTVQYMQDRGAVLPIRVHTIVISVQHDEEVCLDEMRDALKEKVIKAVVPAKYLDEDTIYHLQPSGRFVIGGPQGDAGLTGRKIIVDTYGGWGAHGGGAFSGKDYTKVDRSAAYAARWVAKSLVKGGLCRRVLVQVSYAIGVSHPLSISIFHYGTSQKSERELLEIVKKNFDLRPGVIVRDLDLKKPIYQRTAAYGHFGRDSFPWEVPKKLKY

| Structure (SMILES) | IC50 |
| --- | --- |
| O=c1c(-c2ccc3c(c2)NCCO3)c(Nc2ccccn2)[nH]c2c(-c3ccccc3)c(-c3ccccc3)nn12 [Compound 197, 6-(3,4-dihydro-2H-benzo[b][1,4]oxazin-6-yl)-2,3-diphenyl-5-(pyridin-2-ylamino) pyrazolo[1,5-a]pyrimidin-7(4H)-one] | < 100 nM |
| COc1ccc(-c2c(Nc3cccc(C(N)=O)n3)[nH]c3c(-c4ccccc4)c(-c4ccccc4)nn3c2=O)cc1 [Compound 112, 6-((6-(4-methoxyphenyl)-7-oxo-2,3-diphenyl-4,7-dihydropyrazolo[1,5-a]pyrimidin-5-yl)amino)picolinamide] | < 100 nM |
| O=c1c(-c2ccc3ncccc3c2)cn(CCn2cnnn2)c2c(-c3ccccc3)c(-c3ccccc3)nn12 [Compound 352, 4-(2-(1H-tetrazol-1-yl)ethyl)-2,3-diphenyl-6-(quinolin-6-yl)pyrazolo[1,5-a]pyrimidin-7(4H)-one] | 1000 to 10000 nM |
| COc1ccc(-c2c(Nc3ncncn3)[nH]c3c(C4=CCCCC4)c(-c4ccccc4)nn3c2=O)cc1 [Compound 163, 5-((1,3,5-triazin-2-yl)amino)-3-(cyclohex-1-en-1-yl)-6-(4-methoxyphenyl)-2-phenylpyrazolo[1,5-a]pyrimidin-7(4H)-one] | < 100 nM |
| O=c1c(-c2ccc3ncccc3c2)c(Nc2cnccn2)[nH]c2c(C3=CCCCC3)c(-c3ccccc3)nn12 [Compound 175, 3-cyclohexenyl-2-phenyl-5-(pyrazin-2-ylamino)-6-(quinolin-6-yl)pyrazolo[1,5-a]pyrimidin-7(4H)-one] | < 100 nM |
| O=C1CNC(=O)N1Cc1[nH]c2c(-c3ccccc3)c(-c3ccccc3)nn2c(=O)c1-c1ccc2ncccc2c1 [Compound 322, 3-((7-oxo-2,3-diphenyl-6-(quinolin-6-yl)-4,7-dihydropyrazolo[1,5-a]pyrimidin-5-yl)methyl)imidazolidine-2,4-dione] | 1000 to 10000 nM |
| NCc1[nH]c2c(-c3ccccc3)c(-c3ccccc3)nn2c(=O)c1-c1ccc(O)cc1 [Compound 236, 5-(aminomethyl)-6-(4-hydroxyphenyl)-2,3-diphenylpyrazolo[1,5-a]pyrimidin-7(4H)-one] | < 100 nM |
| COc1ccc(-c2c(Cn3ncnn3)[nH]c3c(-c4ccccc4)c(-c4ccccc4)nn3c2=O)cc1 [Compound 339, 5-((2H-tetrazol-2-yl)methyl)-6-(4-methoxyphenyl)-2,3-diphenylpyrazolo[1,5-a]pyrimidin-7(4H)-one] | 100 to 1000 nM |
| CCOC(=O)c1ncsc1Nc1[nH]c2c(-c3ccccc3)c(-c3ccccc3)nn2c(=O)c1-c1ccc(OC)cc1 [Compound 150, ethyl 5-((6-(4-methoxyphenyl)-7-oxo-2,3-diphenyl-4,7-dihydropyrazolo[1,5-a]pyrimidin-5-yl)amino)thiazole-4-carboxylate] | < 100 nM |
| COc1ccc(-c2nn3c(=O)c(-c4ccc5ncccc5c4)c(C)[nH]c3c2-c2ccccc2)cc1 [Compound 243, 2-(4-methoxyphenyl)-5-methyl-3-phenyl-6-(quinolin-6-yl)pyrazolo[1,5-a]pyrimidin-7(4H)-one] | 1000 to 10000 nM |
| Nc1[nH]c2c(-c3ccccc3)c(-c3ccccc3)nn2c(=O)c1-c1ccc(O)cc1 [Compound 276, 5-amino-6-(4-hydroxyphenyl)-2,3-diphenylpyrazolo[1,5-a]pyrimidin-7(4H)-one] | < 100 nM |
| CCc1[nH]c2c(-c3ccccc3)c(-c3ccccc3)nn2c(=O)c1-c1ccc(OC)cc1 [Compound 312, 5-ethyl-6-(4-methoxyphenyl)-2,3-diphenylpyrazolo[1,5-a]pyrimidin-7(4H)-one] | 100 to 1000 nM |
| O=C(NCCO)c1[nH]c2c(-c3ccccc3)c(-c3ccccc3)nn2c(=O)c1-c1ccc2ncccc2c1 [Compound 329, N-(2-hydroxyethyl)-7-oxo-2,3-diphenyl-6-(quinolin-6-yl)-4,7-dihydropyrazolo[1,5-a]pyrimidine-5-carboxamide] | 100 to 1000 nM |
| Cc1[nH]c2c(N3CCCCC3)c(-c3ccccc3)nn2c(=O)c1-c1ccc(C(N)=O)cc1 [Compound 305, 4-(5-methyl-7-oxo-2-phenyl-3-(piperidin-1-yl)-4,7-dihydropyrazolo[1,5-a]pyrimidin-6-yl)benzamide] | 100 to 1000 nM |
| COc1ccc(-c2c(Nc3c[nH]cn3)[nH]c3c(-c4ccccc4)c(-c4ccccc4)nn3c2=O)cc1 [Compound 184, 5-((1H-imidazol-4-yl)amino)-6-(4-methoxyphenyl)-2,3-diphenylpyrazolo[1,5-a]pyrimidin-7(4H)-one] | < 100 nM |
| Cc1[nH]c2c(N3CCCCC3)c(-c3ccccc3)nn2c(=O)c1-c1ccc2[nH]cnc2c1 [Compound 267, 6-(1H-benzo[d]imidazol-5-yl)-5-methyl-2-phenyl-3-(piperidin-1-yl)pyrazolo[1,5-a]pyrimidin-7(4H)-one] | < 100 nM |
| Cc1[nH]c2c(-c3ccccc3)c(-c3ccccc3)nn2c(=O)c1-c1ccc(O)c(O)c1 [Compound 260, 6-(3,4-dihydroxyphenyl)-5-methyl-2,3-diphenylpyrazolo[1,5-a]pyrimidin-7(4H)-one] | < 100 nM |
| Cc1[nH]c2c(N3CCCCC3)c(-c3ccccc3)nn2c(=O)c1-c1ccc(O)cc1 [Compound 262, 6-(4-hydroxyphenyl)-5-methyl-2-phenyl-3-(piperidin-1-yl)pyrazolo[1,5-a]pyrimidin-7(4H)-one] | < 100 nM |

| Structure (SMILES) | IC50 |
| --- | --- |
| COc1ccc(-c2c(Nc3cc(O)ccn3)[nH]c3c(-c4ccccc4)c(-c4ccccc4)nn3c2=O)cc1 [Compound 109, 5-((4-hydroxypyridin-2-yl)amino)-6-(4-methoxyphenyl)-2,3-diphenylpyrazolo[1,5-a]pyrimidin-7(4H)-one] | < 100 nM |
| COc1ccc(-c2c(Nc3ncccn3)[nH]c3c(-c4ccccc4)c(-c4ccccc4)nn3c2=O)cc1 [Compound 121, 6-(4-methoxyphenyl)-2,3-diphenyl-5-(pyrimidin-2-ylamino)pyrazolo[1,5-a]pyrimidin-7(4H)-one] | < 100 nM |
| Cc1[nH]c2c(N3CCCCC3)c(-c3ccccc3)nn2c(=O)c1N1CCOCC1 [Compound 302, 5-methyl-6-morpholino-2-phenyl-3-(piperidin-1-yl)pyrazolo[1,5-a]pyrimidin-7(4H)-one] | 100 to 1000 nM |
| Cc1[nH]c2c(N3CCCCC3)c(-c3ccccc3)nn2c(=O)c1-c1ccc(N)cc1 [Compound 307, 6-(4-aminophenyl)-5-methyl-2-phenyl-3-(piperidin-1-yl)pyrazolo[1,5-a]pyrimidin-7(4H)-one] | 100 to 1000 nM |
| COc1ccc(-c2c(C)n(C)c3c(N4CCCCC4)c(-c4ccccc4)nn3c2=O)cc1 [Compound 269, 6-(4-methoxyphenyl)-4,5-dimethyl-2-phenyl-3-(piperidin-1-yl)pyrazolo[1,5-a]pyrimidin-7(4H)-one] | < 100 nM |
| Cc1c(-c2ccc3ncccc3c2)c(=O)n2nc(-c3ccccc3)c(-c3ccccc3)c2n1C [Compound 318, 4,5-dimethyl-2,3-diphenyl-6-(quinolin-6-yl)pyrazolo[1,5-a]pyrimidin-7(4H)-one] | 100 to 1000 nM |
| COCn1c(-c2ccccc2)c(C2=CCCCC2)c2nc(C)c(-c3ccc(OC)cc3)c(=O)n21 [Compound 291, 3-cyclohexenyl-1-(methoxymethyl)-6-(4-methoxyphenyl)-5-methyl-2-phenylpyrazolo[1,5-a]pyrimidin-7(1H)-one] | < 100 nM |
| COc1ccc(-c2c(Nc3cnoc3)[nH]c3c(-c4ccccc4)c(-c4ccccc4)nn3c2=O)cc1 [Compound 139, 5-(isoxazol-4-ylamino)-6-(4-methoxyphenyl)-2,3-diphenylpyrazolo[1,5-a]pyrimidin-7(4H)-one] | < 100 nM |
| Cc1[nH]c2c(C3=CCCCO3)c(-c3ccccc3)nn2c(=O)c1-c1ccc2ncccc2c1 [Compound 217, 3-(3,4-dihydro-2H-pyran-6-yl)-5-methyl-2-phenyl-6-(quinolin-6-yl)pyrazolo[1,5-a]pyrimidin-7(4H)-one] | < 100 nM |
| COc1ccc(-c2c(Nc3ccc(OC)nn3)[nH]c3c(-c4ccccc4)c(-c4ccccc4)nn3c2=O)cc1 [Compound 124, 6-(4-methoxyphenyl)-5-((6-methoxypyridazin-3-yl)amino)-2,3-diphenylpyrazolo[1,5-a]pyrimidin-7(4H)-one] | < 100 nM |
| COc1ccc(-c2c(Nc3ccccn3)[nH]c3c(-c4ccccc4F)c(-c4ccccc4)nn3c2=O)cc1 [Compound 179, 3-(2-fluorophenyl)-6-(4-methoxyphenyl)-2-phenyl-5-(pyridin-2-ylamino)pyrazolo[1,5-a]pyrimidin-7(4H)-one] | < 100 nM |
| Cc1[nH]c2c(C3=CC(O)CCC3)c(-c3ccccc3)nn2c(=O)c1-c1ccc2ncccc2c1 (centres unmarked) [Compound 282] | < 100 nM |
| Cc1[nH]c2c(N3CCCCC3)c(-c3ccccc3)nn2c(=O)c1-c1ccncc1 [Compound 304, 5-methyl-2-phenyl-3-(piperidin-1-yl)-6-(pyridin-4-yl)pyrazolo[1,5-a]pyrimidin-7(4H)-one] | 100 to 1000 nM |
| O=c1c(-c2ccc3ncccc3c2)c(Nc2ccon2)[nH]c2c(-c3ccccc3)c(-c3ccccc3)nn12 [Compound 170, 5-(isoxazol-3-ylamino)-2,3-diphenyl-6-(quinolin-6-yl)pyrazolo[1,5-a]pyrimidin-7(4H)-one] | < 100 nM |
| COc1ccc(-c2c(Nc3ncns3)[nH]c3c(C4=CCCCC4)c(-c4ccccc4)nn3c2=O)cc1 [Compound 166, 5-((1,2,4-thiadiazol-5-yl)amino)-3-(cyclohex-1-en-1-yl)-6-(4-methoxyphenyl)-2-phenylpyrazolo[1,5-a]pyrimidin-7(4H)-one] | < 100 nM |
| COc1ccc(-c2c(C#N)[nH]c3c(-c4ccccc4)c(-c4ccccc4)nn3c2=O)cc1 [Compound 314, 6-(4-methoxyphenyl)-7-oxo-2,3-diphenyl-4,7-dihydropyrazolo[1,5-a]pyrimidine-5-carbonitrile] | 100 to 1000 nM |
| CCOc1ccc(-c2c(C)[nH]c3c(-c4ccccc4)c(-c4ccccc4)nn3c2=O)cc1 [Compound 210, 6-(4-ethoxyphenyl)-5-methyl-2,3-diphenylpyrazolo[1,5-a]pyrimidin-7(4H)-one] | < 100 nM |
